Laboratory results published in PubChem BioAssay (NCI).
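1) Cells in 96-well plates. 2) Compound, 48 h, 5 concentrations. 3) Linear interpolation between surrounding doses. 4) Unreached endpoint = highest concentration. TGI: concentration producing complete growth inhibition.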

What was measured:
Experiment in all cases: DTP human tumour cell line panel, 48 h
[1] = system: SK-MEL-28 melanoma
[2] = system: MDA-N
[3] = system: HT29 colon
[4] = system: NCI-H226 lung
[5] = system: HCT-116 colon
[6] = system: SNB-19 CNS
[7] = system: CAKI-1 renal
[8] = system: A549 NSCLC
[9] = system: HOP-92 NSCLC
[10] = system: UACC-62 melanoma
[11] = system: IGROV1 ovarian
[12] = system: CCRF-CEM leukemia

Measured: TGI

CS(C)(=O)=N/C=C\C(=O)C(Cl)(Cl)Cl
> 100 µM: all assays above
